Laboratory results: patent US20190224238A1, “TUMOR THERAPEUTIC DRUG” (HUBEI SOUNDNY BIO TECH CO., LTD., priority 2016, published 2019)

Key:
[1] = tested on: Lewis cell lung cancer model; settings: tail vein, once a day for 10 days from 5th day
Protocol: 3) On the 1st day, 1×10^6 Lewis cells were inoculated into a C57BL/6 mouse via tail vein, and a total of 32 C57BL/6 mice were injected to obtain the C57BL/6 mice of Lewis cell lung cancer model which were randomly divided into four groups equally, namely, experiment group 1, experiment group 2, experiment group 3 and control group.
From the 15th day, all of the C57BL/6 mice were fed normally, and the survival status of the C57BL/6 mice in each group was observed.

[2] = tested on: H22 cell hepatoma ascites model; test: Survival of BALB/c mouse H22 hepatoma ascites model; assay type: in vivo; settings: until the 34th (H22-MPs), 33th (Ery-MPs), 31th (methotrexate) day; 10 mice per group
Protocol: 3) On the first day, 5×10^4 H22 cells were intraperitoneally inoculated into BALB/c mice, and a total of 40 BALB/c mice were injected to obtain the one with H22 cell hepatoma ascites model, which were randomly divided into four groups equally, namely experimental group 1, experimental group 2, experimental group 3 and control group. The BALB/c mice in experimental group 1 were intraperitoneally injected with H22-MPs (MTX); the BALM mice in experimental group 2 were intraperitoneally injected with Ery-MPs (MTX); the BALB/c mice in experimental group 3 were intraperitoneally injected with methotrexate at a dose of 1 μg/g; and the BALB/c mice in the control group were intraperitoneally injected with 200 μL of 0.9% (g/ml) physiological saline.
4) From the 4th day, according to the same injection procedure, the experimental groups were injected with H22-MPs (MTX), Ery-MPs (MTX) and chemotherapy drug (methotrexate) once a day for 7 consecutive days, respectively, while the control group was injected with 200 μL 0.9% (g/ml) physiological saline once a day for 7 consecutive days. From the 11th day, all of the BALB/c mice were fed normally, and the survival status of the BALB/c mice in each group was observed.

[3] = Toxicity and side effect test in BALB/c mice (GPT, serum creatinine, APTT, PT); assay type: in vivo; settings: tail vein, once a day for 7 days; blood on 8th day
Protocol: 3) The prepared H22-MPs (MTX) was injected into 8 BALB/c mice via tail vein respectively, as the experimental group 1; the prepared Ery-MPs (MTX) was injected into 8 BALM mice via tail vein respectively, as the experimental group 2; 8 mice BALB/c mice were injected with methotrexate via tail vein at a dose of 1 μg/g, as the experimental group 3; 8 mice BALB/c mice were injected with 0.9% (g/ml) physiological saline via tail vein, as the control group.
4) On the 8th day, venous blood was taken from the mice in the experimental group 1, the experimental group 2, the experimental group 3 and the control group, and the content of glutamic-pyruvic transaminase, creatinine in serum and the content of APTT and PT in the blood were detected. The body weights of the mice were weighed.

CN(Cc1cnc2nc(N)nc(N)c2n1)c1ccc(C(=O)N[C@@H](CCC(=O)O)C(=O)O)cc1 [methotrexate]
therapeutic effect on lung cancer in mice (survival curve) [1]: much poorer than that of Ery-MPs (MTX) and LLC-MPs (MTX)
total mice died [2]: 9 mice
average activated partial prothrombin time (APTT) [3]: 16.5 s
average plastin time (PT) [3]: 13.13 s
average serum creatinine content [3]: 26.13 µmol/L
